Experimental data from PMC4217095 (Emerging Microbes & Infections, 2014).

Target: MDk/W452(H5N8) NA (Influenza A virus, UniProt A0A088CBR8)
Assay type: biochemical

SMILES	Sensitivity of virus to NA inhibitor (assessment of the IC50)
CCC(CC)[C@H](NC(C)=O)[C@@H]1[C@H](O)[C@@H](C(=O)O)C[C@H]1N=C(N)N [Peramivir, peramivir]	sensitive
CC(=O)N[C@H]1[C@H]([C@H](O)[C@H](O)CO)OC(C(=O)O)=C[C@@H]1N=C(N)N [Zanamivir, zanamivir]	sensitive
